# Measurements from ChEMBL document CHEMBL4033800, “Further Developments of the Phenyl-Pyrrolyl Pentane Series of Nonsteroidal Vitamin D Receptor Modulators as Anticancer Agents” (J Med Chem, 2018).
# System: MCF7
# Experiment: Antiproliferative activity against human MCF7 cells after 48 hrs by MTT assay
# Type: functional, cell-based
# Conditions: MCF7, 48 h
row,IC50,Structure (SMILES)
1,> 50 µM,CCn1c(C(=O)Nc2ccc(OC(F)(F)F)cc2)ccc1C(CC)(CC)c1ccc(OCCC(O)(CC)CC)c(C)c1
2,3.21 µM,CCOC(=O)CN(C)C(=O)c1ccc(C(CC)(CC)c2ccc(OCCC(O)(CC)CC)c(C)c2)n1CC
3,> 50 µM,CCn1c(C(=O)Oc2ccc(CC(=O)OC)cc2)ccc1C(CC)(CC)c1ccc(OCCC(O)(CC)CC)c(C)c1

# System: PC-3
# Experiment: Antiproliferative activity against human PC3 cells after 48 hrs by MTT assay
# Type: functional, cell-based
# Conditions: PC-3, 48 h
row,IC50,Structure (SMILES)
1,> 50 µM,CCn1c(C(=O)Nc2ccc(OC(F)(F)F)cc2)ccc1C(CC)(CC)c1ccc(OCCC(O)(CC)CC)c(C)c1
2,7.14 µM,CCOC(=O)CN(C)C(=O)c1ccc(C(CC)(CC)c2ccc(OCCC(O)(CC)CC)c(C)c2)n1CC
3,> 50 µM,CCn1c(C(=O)Oc2ccc(CC(=O)OC)cc2)ccc1C(CC)(CC)c1ccc(OCCC(O)(CC)CC)c(C)c1

# System: Caco-2
# Experiment: Antiproliferative activity against human Caco2 cells after 48 hrs by MTT assay
# Type: functional, cell-based
# Conditions: Caco-2, 48 h
row,IC50,Structure (SMILES)
1,> 50 µM,CCn1c(C(=O)Nc2ccc(OC(F)(F)F)cc2)ccc1C(CC)(CC)c1ccc(OCCC(O)(CC)CC)c(C)c1
2,30.3 µM,CCOC(=O)CN(C)C(=O)c1ccc(C(CC)(CC)c2ccc(OCCC(O)(CC)CC)c(C)c2)n1CC
3,> 50 µM,CCn1c(C(=O)Oc2ccc(CC(=O)OC)cc2)ccc1C(CC)(CC)c1ccc(OCCC(O)(CC)CC)c(C)c1

# System: HepG2
# Experiment: Antiproliferative activity against human HepG2 cells after 48 hrs by MTT assay
# Type: functional, cell-based
# Conditions: HepG2, 48 h
row,IC50,Structure (SMILES)
1,> 50 µM,CCn1c(C(=O)Nc2ccc(OC(F)(F)F)cc2)ccc1C(CC)(CC)c1ccc(OCCC(O)(CC)CC)c(C)c1
2,25.3 µM,CCOC(=O)CN(C)C(=O)c1ccc(C(CC)(CC)c2ccc(OCCC(O)(CC)CC)c(C)c2)n1CC
3,> 50 µM,CCn1c(C(=O)Oc2ccc(CC(=O)OC)cc2)ccc1C(CC)(CC)c1ccc(OCCC(O)(CC)CC)c(C)c1

# System: L02
# Experiment: Antiproliferative activity against human L02 cells after 48 hrs by MTT assay
# Type: cell-based
# Conditions: L02, 48 h
row,Structure (SMILES),IC50
1,CCn1c(C(=O)Nc2ccc(OC(F)(F)F)cc2)ccc1C(CC)(CC)c1ccc(OCCC(O)(CC)CC)c(C)c1,> 50 µM
2,CCOC(=O)CN(C)C(=O)c1ccc(C(CC)(CC)c2ccc(OCCC(O)(CC)CC)c(C)c2)n1CC,1.99 µM
3,CCn1c(C(=O)Oc2ccc(CC(=O)OC)cc2)ccc1C(CC)(CC)c1ccc(OCCC(O)(CC)CC)c(C)c1,> 50 µM
